Laboratory results from paper PMC6235670, “An mTOR Signaling Modulator Suppressed Heterotopic Ossification of Fibrodysplasia Ossificans Progressiva” (Stem Cell Reports, 2018).

Key:
[1] = AlamarBlue viability assay in ATDC5/FOP-ACVR1; conditions: mouse
Protocol: Generation of ATDC5 stably expressing ACVR1. WT - or FOP-ACVR1 was inserted into doxycycline (Dox)- […]
(KW111/WT-ACVR1 or KW111/FOP-ACVR1). KW111/WT-ACVR1 or KW111/FOP-ACVR1 and PBaseII […]
FuGeneHD® (Promega) according to the manufacturer’s protocol, and the neomycin- resistant population (500 µg/mL) was selected. Further selection was performed by selecting a mCherry high positive population (< 5%) after six hours of Dox treatment, sorting it with fluorescent-activated cell sorting (FACS) using AriaII (BD) according to the manufacturer’s protocol, and designating it as ATDC5/WT-ACVR1 or ATDC5/FOP-ACVR1.
KW111 included PB, active transposable PB elements; TRE-mCMVP, Tetracycline Response Element and a minimal CMV promoter; rtTA, reverse tetracycline-controlled transactivator. PBaseII was an expression plasmid vector containing the PB transposase cDNA with optimized codon usage to human under the control […]
HTS campaign and follow-up screens. ATDC5/FOP-ACVR1 cells were plated in 96-well white plates (2,000 cells/well/40 µ L, Corning) in DMEM/F-12 supplemented with 5% (v/v) FBS. […]
37 °C under 5% CO2. After 3 days incubation, Alkaline Phosphatase activity (ALP) or AlamarBlue activity was measured using Amplite™ Colorimetric Alkaline Phosphatase Assay Kit (AAT Bioquest) or alamarBlue® Cell Viability Reagent (Thermo Fisher Scientific) according to the manufacturer’s protocol, respectively. T h e […]
was measured on POWERSCAN4 (DS Pharma Biomedical) or EnVision® Multilabel Reader (PerkinElmer).
Inhibitory effects of the screened compounds are given as percent inhibition, which was calculated using the following equation: (1-([Abs of compound] - [Abs of Min])/([Abs of Max] - [Abs of Min]))× 100, where [Abs of Max] and [Abs of Min] are the mean Abs of DMSO control and 1 µM DMH-1, respectively. The Z’ factor, which is widely used as a measure of the assay quality of each plate, was calculated using the following equation: Z’ factor = 1 - 3 × ([SD of Max] + [SD of Min])/([Abs of Max] - [Abs of Min]) (SI Appendix, Fig.
The S/B (signal-to-background) ratio was calculated using the following equation: ([Abs of Max]/[Abs of Min]) (SI Appendix, Fig. S3B).
Using ATDC5/FOP-ACVR1 cells, we performed a first screening (n=2; test compounds = 1 µM, Fig. […]

[2] = tested on: FOP-iMSCs; test: 2D chondrogenic induction of FOP-iMSCs with activin A (GAG, Alcian blue); format: cell-based, human
[3] = tested on: mTOR signaling (p-S6); test: p-S6 western blotting in FOP-iMSCs cultured with 10% FBS; format: cell-based, human; conditions: 100 nM, 2 hr
Protocol: time point t = 24 h from t = 0 h, and relative cell migration was expressed as the ratio of the absolute cell migrations between the experimental and control groups by using CL-Quant software (Nikon Corp.).
Quantitative PCR analysis. Total RNA was purified with RNeasy Kit (Qiagen) and treated with DNase -one Kit (Qiagen) to remove genomic DNA. Total RNA (0.3 µg) was reverse transcribed for single-stranded cDNA using random primers and Superscript III reverse transcriptase (Thermo Fisher Scientific) according to the manufacturer’s instructions. Quantitative PCR was performed with Thunderbird SYBR qPCR Mix (TOYOBO) and analyzed with the StepOne real-time PCR system (Applied Biosystems). […]
Microarray experiments. 2D chondrogenic induction was performed in FOP-iMSCs stimulated with or without 100 ng/mL Activin-A, TAK 165, CP-724714 and Lapatinib. […] Raw CEL files were imported into GeneSpring GX 12.6.1 software (Agilent Technologies), and expression values were calculated with the RMA16 algorithm. […]
Protein bands were detected with ECL Prime Western Blotting Detection Reagent (GE Healthcare) and visualized using BIO-RAD Molecular Imager® Chemi-DocTM XRS+ with Image LabTM software (Bio-Rad). […]
GAG value. The GAG content was quantified in pellets with the Blyscan Glycosaminoglycan Assay Kit (Biocolor). The DNA content was quantified using PicoGreen dsDNA Quantitation Kit (Thermo Fisher […]

[4] = tested on: FOP-iMSCs; test: Microarray / pathway analysis of activin A-induced chondrogenesis of FOP-iMSCs; format: cell-based, human; conditions: 100 nM, activin A, 7 days
Protocol: Microarray experiments. 2D chondrogenic induction was performed in FOP-iMSCs stimulated with or without 100 ng/mL Activin-A, TAK 165, CP-724714 and Lapatinib. Seven days after incubation, mRNA was extracted. RNA was reverse transcribed, biotin-labeled and hybridized to GeneChip Human Gene 1.0 ST Expression Array, which was subsequently washed and scanned according to the manufacturer’s instructions (Affymetrix). Raw CEL files were imported into GeneSpring GX 12.6.1 software (Agilent Technologies), and expression values were calculated with the RMA16 algorithm. Pathway analysis was performed by Ingenuity pathway analysis (Qiagen). […]

[5] = tested on: ATDC5/FOP-ACVR1 cells; test: ALP assay (HTS and dose-response) in ATDC5/FOP-ACVR1; format: cell-based, mouse; conditions: Mus musculus, same protocol as HTS (72 h)
[6] = tested on: healthy control iPSC (414C2)-derived iMSCs; test: Wound healing assay

SMILES: FC(F)(F)c1ccc(/C=C/c2nc(COc3ccc(CCCCn4ccnn4)cc3)co2)cc1 [TAK 165, mubritinib]
- viability at 3 days, 10 µM [1]: 117%
- inhibition of glycosaminoglycan (GAG) production ([2]; 1 μM, activin A, 7 days): potent inhibition
- suppression of chondrogenic induction (GAG), dose dependence ([2]; activin A, 7 days): dose-dependent
- Alcian blue staining ([2]; compared with other HTS hits): obviously different effects
- p-S6 levels (direct mTOR inhibition) [3]: did not
- transcriptome: genes involved in chondrogenesis or osteogenesis [4]: affected genes that are involved in chondrogenesis or osteogenesis
- IC50 [5]: 39 nM
- Relative cell migration (wound healing assay) vs DMSO ([6]; 10 nM rapamycin or 1 µM TAK165, 24 h): n.s.
- wound healing in vitro ([6]; 1 µM, 24 h): did not impair
